Measurements taken from patent US20220267380A1, “Glycopeptides Increasing Lipid Synthesis” (TFCHEM, priority 2019, published 2022).

Test system: normal human dermal fibroblasts (NHDF)
Assay: Gene expression in NHDF, full transcriptome analysis with Affymetrix U219 microarray
Type: cell-based
Conditions: NHDF, 7.5 mg/ml, 24 h
Method: In the present study, the transcriptional effects (modulation of gene expression) of compounds 1, 2, 3 and 4 were evaluated on normal human dermal fibroblasts (NHDF) under basal conditions.
More specifically, the comparative analysis of the different transcriptomic profiles was performed using an Affymetrix GeneAtlas platform and the human “full transcriptome” U219 chip, which includes 36,000 transcripts and variants.
Fibroblasts were seeded in 24-well plates and cultured in culture medium for 24 hours. The medium was then replaced by assay medium and cells were incubated for further 24 hours. The medium was replaced by assay medium containing or not (control) the test compounds at different concentrations and the cells were preincubated for 24 hours. All experimental conditions were performed in triplicate. At the end of incubation, the culture supernatants were removed and the cells were washed in a phosphate buffered saline (PBS) solution and immediately frozen at −80° C.
Before RNA extraction, the replicates were pooled. Total RNA was extracted from each sample using TriPure Isolation Reagent® according to the supplier's instructions. The amount and quality of total RNA were evaluated for all samples using capillary electrophoresis (Bioanalyzer 2100, Agilent technologies). From each RNA, a labeled and amplified anti-sens RNA (aRNA) was obtained using GeneChip 3′IVT PLUS Kit (Affymetrix). For each labeled and amplified aRNA sample the profiles were evaluated before and after fragmentation using capillary electrophoresis (Bioanalyzer 2100, Agilent technologies). Hybridization of fragmented aRNA onto Affymetrix® U219 chip (36,000 transcripts and variants) was performed in the GeneAtlas™ fluidics Affymetrix® hybridization station for 20 hours at 45° C. U219 chip was analyzed using the GeneAtlas™ Imaging station (Affymetrix®—resolution 2 μm) to generate fluorescence intensity data.
Expression Console and Quality controls: data were normalized with the Expression Console (Affymetrix®) software using RMA algorithm. Then a quality control of the labeling and the hybridization was performed. Hybridization and labeling steps successfully passed the quality controls for these experiments.
Data reduction, Excel file description: once normalized with Expression Console, data were transferred into a Microsoft Excel® file in order to go further into data reduction.
Calculation and tools were added in order to rank and sort data, and finally to support data interpretation. Detection thresholds in terms of fold change were defined and applied on normalized data.
Results are considered and presented or commented per gene (and not probe). A probe set is a collection of probes designed to interrogate a given sequence of a gene. For data interpretation, the most important relative expression value obtained with one probe is considered to be representative of the corresponding gene. The file contains the following data: • Relative expression (RE) for each sample, • Fold change calculation, • Gene information.

[1] = relative expression adjusted to detection limit (<20)

SMILES: C[C@H](NC(=O)[C@@H](N)CCCCNCC(F)(F)[C@]1(O)O[C@H](CO)[C@H](O)[C@H](O)[C@H]1O)C(=O)O [Compound 2]
- Fold change, APOD (vs control): 0.50
- Fold change, DHCR24 (vs control): 2.13
- Fold change, HACD1 (vs control): 2.01
- Fold change, NEU1 (vs control): 2.18
- Fold change, SERINC2 (vs control): 2.09
- Fold change, TM7SF2 (vs control): 2.18
- Fold change, TXNRD1 (vs control): 2.07
- Fold change, SCD (vs control, Affymetrix probe set 11715561_s_at): 2.01
- Fold change, SCD (vs control, Affymetrix probe set 11715562_x_at): 2.02
- Fold change, SCD (vs control, Affymetrix probe set 11715563_s_at): 2.07
- Fold change, FADS1 (vs control, Affymetrix probe set 11752670_a_at): 2.04
- Fold change, FADS1 (vs control, Affymetrix probe set 11755251_x_at): 2.19
- REadj2, APOD [1]: 174.26
- REadj2, DHCR24 [1]: 178.12
- REadj2, HACD1 [1]: 516.24
- REadj2, NEU1 [1]: 495.48
- REadj2, SERINC2 [1]: 245.33
- REadj2, TM7SF2 [1]: 88.53
- REadj2, TXNRD1 [1]: 1384.05
- REadj2, SCD (relative expression adjusted to detection limit (<20), Affymetrix probe set 11715561_s_at): 277.57
- REadj2, SCD (relative expression adjusted to detection limit (<20), Affymetrix probe set 11715562_x_at): 302.56
- REadj2, SCD (relative expression adjusted to detection limit (<20), Affymetrix probe set 11715563_s_at): 241.64
- REadj2, FADS1 (relative expression adjusted to detection limit (<20), Affymetrix probe set 11752670_a_at): 1734.26
- REadj2, FADS1 (relative expression adjusted to detection limit (<20), Affymetrix probe set 11755251_x_at): 1114.87
